Like-named read-outs stand apart in the source and are kept apart here.
How the values were obtained:
[1] = Hygroscopicity of MDMA salts at 75% RH, visual assessment after 24 hours; format: physicochemical; details: visual assessment after exposure to 75% RH (room temp) for 24 hours
Protocol: A small amount of each salt was placed in a glass vial and exposed to 75% relative humidity for 24 hours. […] That is, the solids remained free flowing.
All materials having a unique X-ray powder diffraction (XRPD) pattern were characterized by differential scanning calorimetry (DSC), thermogravimetric analysis (TG), and ^1H nuclear magnetic resonance (NMR) spectroscopy. The hygroscopicity of each salt at 75% RH was also evaluated. The water solubility of each salt was estimated by adding water in aliquots to weighed portions of solid at room temperature while sonicating. Whether dissolution had occurred was judged by visual inspection after addition of each solvent aliquot. Solubility numbers were calculated by dividing the weight of the sample by the total amount of solvent used to dissolve the sample. The actual solubilities may be greater than the numbers calculated because of the use of solvent aliquots that were too large or because of slow dissolution rates.

[2] = Solid-form stability of MBDB maleate forms (ball milling, drying, interconversion slurry); format: physicochemical
Protocol: During the screen, a single crystal Maleate 1 of sufficient size and quality was obtained from a vapor diffusion experiment with ethanol and hexane. The crystal structure is reported elsewhere but the data confirmed the anhydrous/unsolved nature of the material. […] Two new crystalline forms of MBDB Maleate were observed during the screening designated as MBDB Maleate 2 and MBDB Maleate 3 (FIG. 96, 97). Additional characterization of these samples was conducted to better understand the nature of the materials produced, as shown below. MBDB Maleate 2 was generated once from a cooling crystallization from dioxane. The proton nuclear magnetic resonance (NMR) spectrum was consistent with a monomaleate salt of MBDB and contained residual dioxane. Only a limited amount of material was recovered so the only additional characterization that could be completed was differential scanning calorimetry (DSC). The DSC thermogram appears consistent with an anhydrous/unsolvated form with a likely melt at 96° C. (FIG. 100). […] An attempt was made to reproduce Maleate 2 using the same conditions and seeds of Maleate 2. PXRD analysis of the recovered solids however was consistent with Maleate 1. MBDB Maleate 3 was isolated from an evaporation experiment involving chloroform and ethyl acetate. NMR analysis of the material was consistent with a mono-maleate salt of MBDB. […]

[3] = tested on: Male Sprague-Dawley rats; experiment: Rat elevated zero-maze study with MDAI and chlordiazepoxide; format: in vivo
Protocol: Three rats from the vehicle group, 3 rats from the 2.5 mg/kg MDAI group, and 3 rats from the CDP group were tested on a separate day from the other rats.

[4] = cited from earlier work
[5] = tested on: participants diagnosed with at least moderate post-traumatic stress disorder (PTSD); experiment: Double-blind, randomized, placebo-controlled clinical trial of MDAI-assisted psychotherapy in PTSD; format: in vivo, human
Protocol: A multicenter, randomized, double-blind, placebo-controlled trial is conducted to assess the efficacy and safety of MDAI-assisted psychotherapy versus psychotherapy with placebo control in participants diagnosed with at least moderate post-traumatic stress disorder (PTSD).
This multicenter, randomized, double-blind, placebo-controlled trial is conducted at various sites in the United States with IRB approval from each study site. A flexible dose of MDAI hydrochloride salt or placebo, followed by a supplemental half-dose unless contraindicated by patient's previous response or medical history, is also administered during the Treatment Period with psychotherapy in at least 3 blinded monthly Experimental Sessions. The Supplemental Dose extends the duration of drug effects on the participants during an Experimental Session. An optional Risk Evaluation and Mitigation Strategy (REMS) Protocol may be implemented for MDAI and placebo-groups. The Treatment Period lasts for approximately 12 weeks. During the Treatment Period, each Experimental Session is followed by three Intervening Sessions of non-drug psychotherapy. Each Experimental Session involves an overnight stay. The Primary Outcome measure, the change in Clinician Administered PTSD Scale for DSM-5 (CAPS-5), is determined by a blinded Independent Rater (IR) pool multiple times throughout the study. The study consists of separate periods for each participant. Initially, prospective participants undergo a Screening Period involving an initial eligibility assessment, a medical history intake, informed consent, and enrollment of eligible participants. Next, a Preparation Period is undertaken for enrolled participants involving medication tapering and clinical baseline assessments to confirm each participant meets enrollment criteria. As part of the Preparation Period, a detailed assessment of co-morbidities to PTSD is recorded. Participants may remain on prescribed courses of selective serotonin reuptake inhibitor (SSRI) or serotonin and norepinephrine reuptake inhibitor (SNRI) treatment. Dosages and/or frequency of administration of a prescribed SSRI or SNRI may be adjusted to fit within study parameters. Participants may be required to taper a prescribed course of medication in order to maintain eligibility within the study. The Treatment Period consists of three monthly Experimental Sessions and associated Intervening Sessions of integrative behavioral psychotherapy. The Treatment Period lasts approximately 12 weeks. Following the Treatment Period is a Follow-up Period and Study Conclusion. During the Follow-up Period and Study Conclusion, participants complete 4 weeks with no study visits, followed by a Study Conclusion visit.
This study compares the effects of three blinded Experimental Sessions of psychotherapy in combination with flexible doses of MDAI or placebo administered as described below. Non-drug preparatory and intervening psychotherapy sessions are also included. Patient's weight is determined for dosage calculation. Initial dose is 100 mg unless this will result in a dosage of less than 1.5 mg/kg of patient weight. Initial dose thereby adjusted upward in 50 mg increments to deliver the lowest dose possible of at least 1.5 mg/kg of patient weight. Initial dose for Experimental Session 2 and 3 is cumulative dose calculated by adding the initial dose plus REMS protocol dose used the previous Experimental Session for each patient.
Randomization occurs prior to the initiation of Experimental Session 1. […]

[6] = cited from earlier work; remark: listed apart in the source
[7] = Dynamic vapor sorption (DVS) analysis with post-DVS XRPD; format: physicochemical; details: for Hygroscopicity by DVS: 25° C., 5 to 95% RH
Protocol: DVS analysis was carried out using a TA Instruments Q5000 Dynamic Vapor Sorption analyzer. The instrument was calibrated with standard weights and a sodium bromide standard for humidity. Approximately 5-25 mg of sample was loaded into a metal-coated quartz pan for analysis. The sample was analyzed at 25° C. with a maximum equilibration time of one hour in 10% relative humidity (RH) steps from 5 to 95% RH (adsorption cycle) and from 95 to 5% RH (desorption cycle). The movement from one step to the next occurred either after satisfying the equilibrium criterion of 0.01% weight change or, if the equilibrium criterion was not met, after one hour. The percent weight change values were calculated using Microsoft Excel®.

[8] = Physical stability of MBDB salts at 40° C./75% RH; format: physicochemical
Protocol: During the screen, a single crystal Maleate 1 of sufficient size and quality was obtained from a vapor diffusion experiment with ethanol and hexane. The crystal structure is reported elsewhere but the data confirmed the anhydrous/unsolved nature of the material. […] Two new crystalline forms of MBDB Maleate were observed during the screening designated as MBDB Maleate 2 and MBDB Maleate 3 (FIG. 96, 97). Additional characterization of these samples was conducted to better understand the nature of the materials produced, as shown below. MBDB Maleate 2 was generated once from a cooling crystallization from dioxane. The proton nuclear magnetic resonance (NMR) spectrum was consistent with a monomaleate salt of MBDB and contained residual dioxane. Only a limited amount of material was recovered so the only additional characterization that could be completed was differential scanning calorimetry (DSC). The DSC thermogram appears consistent with an anhydrous/unsolvated form with a likely melt at 96° C. (FIG. 100). […] An attempt was made to reproduce Maleate 2 using the same conditions and seeds of Maleate 2. PXRD analysis of the recovered solids however was consistent with Maleate 1. MBDB Maleate 3 was isolated from an evaporation experiment involving chloroform and ethyl acetate. NMR analysis of the material was consistent with a mono-maleate salt of MBDB. Thermal analysis was consistent with an anhydrous/unsolvated material with a likely melting point of 73° C. (FIG. 101). […] No additional characterization was completed on this sample due to the limited amount of material that was recovered.

[9] = Estimated solubility of MDMA salts (solvent added in aliquots, visual inspection); format: physicochemical
[10] = cited from earlier work; remark: listed apart in the source
[11] = oral, people, MDAI Dosages (psychonautwiki)

CNC(C)Cc1ccc2c(c1)OCO2.CNC(C)Cc1ccc2c(c1)OCO2.O=C(O)[C@@H](O)[C@H](O)[C@H](O)[C@@H](O)C(=O)O (stereo not shown) [Galactarate (Mucate)]
Hygroscopic at 75% RH? [1]: no evidence of hygroscopicity and No

CNC(C)Cc1ccc2c(c1)OCO2.O=C(O)CCC(=O)O (stereo not shown) [Succinate]
Hygroscopic at 75% RH? [1]: No

CCC(Cc1ccc2c(c1)OCO2)NC.O=C(O)/C=C\C(=O)O (stereo not shown) [Maleate 3]
Form stability on drying (PXRD) ([2]; mixture of Maleate 3 and Maleate 1 dried at 46° C. overnight, recovered solids Maleate 1): metastable under these conditions

CNC(C)Cc1ccc2c(c1)OCO2.O=C(O)/C=C\C(=O)O (stereo not shown) [Maleate Form 1]
Hygroscopic at 75% RH? [1]: No

NC1Cc2cc3c(cc2C1)OCO3 [MDAI, 5,6-methylenedioxy-2-aminoindane]
Percentage of time in the open arms (% TO) ([3]; 0.625 mg/kg ip): numerical increase in % TO that was greater than vehicle or any other dose of MDAI
Percentage of time in the open arms (% TO) ([3]; doses too low or too high (0.15, 0.31, 1.25, 2.5)): opposite effect on % TO
Total open arm entries ([3]; higher and lower doses): trended towards an anxiogenic effect
Total open arm entries ([3]; middle dose): increase vs placebo that trended towards significance
Reported time to achieve peak effects ([4]; after dosing): 0.75 to 2 h
Daytime sleepiness (ESS) ([5]; Study Conclusion): significant improvement in lessening daytime sleepiness
Clinician-rated functional impairment score (SDS) ([5]; Study Conclusion, vs placebo): significant improvement in clinician-rated functional impairment score
Depression (HAM-D) ([5]; Study Conclusion, vs placebo): significant improvement depression
Change in CAPS-5 assessment ([5]; Study Conclusion, vs placebo, hydrochloride salt with psychotherapy): significant mean reduction in CAPS-assessment compared to the placebo group
Adverse anxiogenic incidents ([5]; vs placebo-treated controls): without a significant increase in adverse anxiogenic incidents

CCNC(C)Cc1ccc2c(c1)OCO2 (stereo not shown) [MDE, N-ethyl-3,4-methylenedioxyamphetamine]
Reported time to achieve peak effects ([6]; after dosing): 1 to 2 h
Oral dose for drug activity level Very Strong ([6]; oral): ≥225 mg

CCC(Cc1ccc2c(c1)OCO2)NC.O=C(O)/C=C\C(=O)O (stereo not shown) [Maleate 1]
Hygroscopicity by DVS [7]: minimal water sorption over RH range
DVS weight gain ([7]; at 95% RH, listed as MBDB Maleate Form1): 0.6% wt gain
Hygroscopic? ([7]; based on moisture uptake at 95% observed during DVS analysis): Slightly
Physical stability by PXRD ([8]; 40° C./75% RH for 50 days): no change
Physical Stability ([8]; 40° C./75% RH overnight): No change
Physical Stability ([8]; after 1 day at 40° C./75% RH): No visible change
Stability to ball milling (recovered solids vs starting material) ([2]; ball milled): stable under mechanical stressing

CNC(C)Cc1ccc2c(c1)OCO2.CNC(C)Cc1ccc2c(c1)OCO2.O=C(O)/C=C/C(=O)O (stereo not shown) [Fumarate]
Solubility ([9]; 1,4-dioxane): <1000 µg/mL
Solubility ([9]; 1:1 MeOH:chloroform (CHCl3)): 35000 µg/mL
Solubility ([9]; 2-propanol (IPA)): <1000 µg/mL
Solubility ([9]; 95:5 ACN:water): 4000 µg/mL
Solubility ([9]; 95:5 EtOH:water): 15000 µg/mL
Solubility ([9]; 95:5 IPA:water): 5000 µg/mL
Solubility ([9]; 95:5 THF:water): 14000 µg/mL
Solubility ([9]; 95:5 acetone:water): 2000 µg/mL
Solubility ([9]; 95:5 dioxane:water): 6000 µg/mL
Solubility ([9]; acetone): <1000 µg/mL
Solubility ([9]; acetonitrile (ACN)): <1000 µg/mL
Solubility ([9]; dichloromethane (DCM)): <1000 µg/mL
Solubility ([9]; diethyl ether (Et2O)): <1000 µg/mL
Solubility ([9]; ethanol (EtOH)): 4000 µg/mL
Solubility ([9]; ethyl acetate (EtOAc)): <1000 µg/mL
Solubility ([9]; methanol (MeOH)): 47000 µg/mL
Solubility ([9]; tetrahydrofuran (THF)): <1000 µg/mL
Solubility ([9]; water): 260000 µg/mL
Hygroscopicity by DVS ([7]; listed as MDMA Hemi-Fumarate): Slightly hygroscopic
Hygroscopicity by DVS ([7]; listed as MDMA hemi-fumarate): slightly hygroscopic
Post-DVS XRPD (form change) ([7]; solids after DVS analysis): Unchanged
Hygroscopic at 75% RH? [1]: no evidence of hygroscopicity and No

CNC(C)Cc1ccc2c(c1)OCO2.O=P(O)(O)O.O=P(O)(O)O (stereo not shown) [Phosphate]
Hygroscopic at 75% RH? [1]: no evidence of hygroscopicity and No

CCC(Cc1ccc2c(c1)OCO2)NC (stereo not shown) [MBDB, 1-(benzo[d][1,3]dioxol-5-yl)-N-methylbutan-2-amine]
Oral dose for Drug Activity Level Threshold [4, 11]: 40 mg
Oral dose for drug activity level Very Strong [4, 11]: ≥300 mg
Effects: Coming Down, Time After Dose ([10]; Duration of effects of MBDB in people, adapted from PiHKAL 1991): ~90 min
Reported time to achieve peak effects ([10]; after dosing): 0.75 to 1 h
Oral MBDB Dose, Drug Activity Level: Very Strong ([10]; oral, people): ≥350 mg

CNC(C)Cc1ccc2c(c1)OCO2.O=C(O)/C=C\C(=O)O (stereo not shown) [Maleate Form 2]
Hygroscopic at 75% RH? [1]: No

Source: patent publication US11958821B2, “Phenethylamine compounds salts, polymorphic forms and methods of use thereof” (Terran Biosciences Inc., priority 2021, dated 2024)
